Assay results reported in patent publication US20220119354A1, “DIAMINO-SUBSTITUTED PYRIDINES AND PYRIMIDINES AS HERBICIDES” (FMC Corporation, priority 2019, published 2022).

How the values were obtained:
Assay type in all cases: in vivo
[1] = tested on: foxtail, giant (Setaria faberii); assay: Test A postemergence, giant foxtail; settings: 0 to 100 scale
How it was run: (§1)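 Greenhouse test; plants at one- to two-leaf stage (2–10 cm) sprayed postemergence with compound in non-phytotoxic solvent/surfactant mix, or soil sprayed preemergence after seeding in loam–sand blend. Injury rated visually versus untreated controls after about 10 d, 0 (no effect) to 100 (complete control).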

[2] = tested on: foxtail, giant (Setaria faberii); assay: Test A preemergence, giant foxtail; settings: 0 to 100 scale
How it was run: as §1

corn (Zea mays) = assay: Test A postemergence, corn; settings: 0 to 100 scale
How it was run: as §1

[3] = tested on: galium (catchweed bedstraw, Galium aparine); assay: Test A postemergence, galium; settings: 0 to 100 scale
How it was run: as §1

[4] = tested on: barnyardgrass (Echinochloa crus-galli); assay: Test B flooded paddy test, barnyardgrass; settings: Flood, 250 g ai/ha, applied to paddy water, 2-leaf stage, visual evaluation after 13 to 15 d
How it was run: (§2)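 Each response is a visual 0–100 rating made against untreated controls, where 0 is no effect and 100 is complete control; a dash marks no result. Compound was dosed into 3 cm paddy water over 2-leaf plants, assessed after 13 to 15 d.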

[5] = tested on: pigweed (Amaranthus retroflexus); assay: Test A postemergence, pigweed; settings: 0 to 100 scale
How it was run: as §1

[6] = tested on: ragweed (common ragweed, Ambrosia elatior); assay: Test A preemergence, ragweed; settings: 0 to 100 scale
How it was run: as §1

[7] = tested on: barnyardgrass (Echinochloa crus-galli); assay: Test A preemergence, barnyardgrass; settings: 0 to 100 scale
How it was run: as §1

[8] = tested on: ryegrass, Italian (Lolium multiflorum); assay: Test A postemergence, Italian ryegrass; settings: 0 to 100 scale
How it was run: as §1

rice (Oryza sativa) = assay: Test B flooded paddy test, rice; settings: Flood, 250 g ai/ha, applied to paddy water, 2-leaf stage, visual evaluation after 13 to 15 d
How it was run: as §2

[9] = tested on: ragweed (common ragweed, Ambrosia elatior); assay: Test A postemergence, ragweed; settings: 0 to 100 scale
How it was run: as §1

[10] = tested on: barnyardgrass (Echinochloa crus-galli); assay: Test A postemergence, barnyardgrass; settings: 0 to 100 scale
How it was run: as §1

[11] = tested on: ducksalad (Heteranthera limosa); assay: Test B flooded paddy test, ducksalad; settings: Flood, 250 g ai/ha, applied to paddy water, 2-leaf stage, visual evaluation after 13 to 15 d
How it was run: as §2

[12] = tested on: sedge, umbrella (small-flower umbrella sedge, Cyperus difformis); assay: Test B flooded paddy test, umbrella sedge; settings: Flood, 250 g ai/ha, applied to paddy water, 2-leaf stage, visual evaluation after 13 to 15 d
How it was run: as §2

[13] = tested on: ryegrass, Italian (Lolium multiflorum); assay: Test A preemergence, Italian ryegrass; settings: 0 to 100 scale
How it was run: as §1

[14] = tested on: pigweed (Amaranthus retroflexus); assay: Test A preemergence, pigweed; settings: 0 to 100 scale
How it was run: as §1

[15] = tested on: wheat (Triticum aestivum); assay: Test A postemergence, wheat; settings: 0 to 100 scale
How it was run: as §1

[16] = tested on: blackgrass (Alopecurus myosuroides); assay: Test A postemergence, blackgrass; settings: 0 to 100 scale
How it was run: as §1

kochia (Kochia scoparia) [17] = assay: Test A postemergence, kochia; settings: 0 to 100 scale
How it was run: as §1

kochia (Kochia scoparia) [18] = assay: Test A preemergence, kochia; settings: 0 to 100 scale
How it was run: as §1

| SMILES | Plant response rating, Foxtail, Giant ([1]; 125 g ai/ha) | Plant response rating, Foxtail, Giant ([1]; 500 g ai/ha) | Plant response rating, Foxtail, Giant ([2]; 125 g ai/ha) | Plant response rating, Foxtail, Giant ([2]; 500 g ai/ha) | Plant response rating, Corn (corn (Zea mays); 125 g ai/ha) | Plant response rating, Corn (corn (Zea mays); 500 g ai/ha) | Plant response rating, Galium ([3]; 125 g ai/ha) | Plant response rating, Galium ([3]; 500 g ai/ha) | Plant response rating, Barnyardgrass (0 to 100 scale, 0 is no effect, 100 is complete control) [4] | Plant response rating, Pigweed ([5]; 125 g ai/ha) | Plant response rating, Pigweed ([5]; 500 g ai/ha) | Plant response rating, Ragweed ([6]; 125 g ai/ha) | Plant response rating, Ragweed ([6]; 500 g ai/ha) | Plant response rating, Barnyardgrass ([7]; 125 g ai/ha) | Plant response rating, Barnyardgrass ([7]; 500 g ai/ha) | Plant response rating, Ryegrass, Italian ([8]; 125 g ai/ha) | Plant response rating, Ryegrass, Italian ([8]; 500 g ai/ha) | Plant response rating, Rice (0 to 100 scale, 0 is no effect, 100 is complete control) (rice (Oryza sativa)) | Plant response rating, Ragweed ([9]; 125 g ai/ha) | Plant response rating, Ragweed ([9]; 500 g ai/ha) | also measured |
| --- | --- | --- | --- | --- | --- | --- | --- | --- | --- | --- | --- | --- | --- | --- | --- | --- | --- | --- | --- | --- | --- |
| CC(Nc1ncc(C(F)(F)F)c(N)n1)C1Cc2ccccc2C1 (racemic) [Compound 6] | 0 | 20 | 90 | 100 | 0 | 20 | 40 | 70 | 0 | 90 | 100 | 30 | 100 | 0 | 60 | 0 | 20 | 0 | 20 | 40 | Plant response rating, Barnyardgrass ([10]; 125 g ai/ha): 10; Plant response rating, Barnyardgrass ([10]; 500 g ai/ha): 10; Plant response rating, Ducksalad (0 to 100 scale, 0 is no effect, 100 is complete control) [11]: 0; Plant response rating, Sedge, Umbrella (0 to 100 scale, 0 is no effect, 100 is complete control) [12]: 0; Plant response rating, Ryegrass, Italian ([13]; 125 g ai/ha): 30; Plant response rating, Ryegrass, Italian ([13]; 500 g ai/ha): 70; Plant response rating, Pigweed ([14]; 125 g ai/ha): 100; Plant response rating, Pigweed ([14]; 500 g ai/ha): 100; Plant response rating, Wheat ([15]; 125 g ai/ha): 0; Plant response rating, Wheat ([15]; 500 g ai/ha): 0; Plant response rating, Blackgrass ([16]; 125 g ai/ha): 0; Plant response rating, Blackgrass ([16]; 500 g ai/ha): 10; Plant response rating, Kochia (kochia (Kochia scoparia) [17]; 125 g ai/ha): 70; Plant response rating, Kochia (kochia (Kochia scoparia) [17]; 500 g ai/ha): 90; Plant response rating, Kochia (kochia (Kochia scoparia) [18]; 125 g ai/ha): 80; Plant response rating, Kochia (kochia (Kochia scoparia) [18]; 500 g ai/ha): 100 |
| Nc1nc(NC(c2cc3ccccc3o2)C2CC2)ncc1C(F)(F)F (racemic) [Compound 18] | 0 | 70 | 90 | 90 | 0 | 0 | 40 | 90 | 0 | 90 | 100 | 80 | 100 | 50 | 80 | 0 | 30 | 0 | 20 | 70 | Plant response rating, Barnyardgrass ([10]; 125 g ai/ha): 10; Plant response rating, Barnyardgrass ([10]; 500 g ai/ha): 80; Plant response rating, Ducksalad (0 to 100 scale, 0 is no effect, 100 is complete control) [11]: 85; Plant response rating, Sedge, Umbrella (0 to 100 scale, 0 is no effect, 100 is complete control) [12]: 98; Plant response rating, Ryegrass, Italian ([13]; 125 g ai/ha): 50; Plant response rating, Ryegrass, Italian ([13]; 500 g ai/ha): 50; Plant response rating, Pigweed ([14]; 125 g ai/ha): 90; Plant response rating, Pigweed ([14]; 500 g ai/ha): 100; Plant response rating, Wheat ([15]; 125 g ai/ha): 20; Plant response rating, Wheat ([15]; 500 g ai/ha): 10; Plant response rating, Blackgrass ([16]; 125 g ai/ha): 20; Plant response rating, Blackgrass ([16]; 500 g ai/ha): 80; Plant response rating, Kochia (kochia (Kochia scoparia) [17]; 125 g ai/ha): 50; Plant response rating, Kochia (kochia (Kochia scoparia) [17]; 500 g ai/ha): 90; Plant response rating, Kochia (kochia (Kochia scoparia) [18]; 125 g ai/ha): 0; Plant response rating, Kochia (kochia (Kochia scoparia) [18]; 500 g ai/ha): 60 |
